Measurements from US9447051B2, “Diaminopyrimidines and uses thereof” (AbbVie inc., priority 2012, dated 2016).

The molecules below were run on RSV (Group A, Long Strain) (assay: Antiviral (RSV) assay: cytopathetic effect (CPE) protection assay in HEp-2 cells, MTT readout). Conditions: Table 1, 0.2 MOI RSV, 4 days incubation, protection from CPE.
Assay type: cell-based, human respiratory syncytial virus (RSV)
Experimental: HEp-2 cells and RSV (Group A, Long Strain) were obtained from the American Type Culture Collection (Manassas, Va.). A cytopathetic effect (CPE) protection assay was performed to determine the ability of a compound to protect the cells from viral infection and thus the CPE induced by viral infection. 96-well plates were first seeded with 3×10^3 HEp-2 cells per well in Dulbecco's modified Eagle's medium (DMEM) containing 10% fetal bovine serum (FBS). One day after the cells were seeded, they were preincubated with serial dilutions of compounds prepared in 100 μL assay medium (DMEM mixed with F12 medium at a 1:1 ratio, supplemented with 2% FBS and 1 mM sodium pyruvate) for 1 hour at 37° C. 100 μL of assay medium containing 0.2 multiplicity of infection (MOI) of RSV was then added to each well of cells. In addition to wells containing infected cells incubated with compounds, each plate also contained replicates of two kinds of controls: (1) Virus control contained cells infected with 0.2 MOI of RSV in assay medium, (2) Uninfected cell control contained cells incubated with assay medium only. After 4 days of incubation at 37° C., the viability of cells was assessed using MTT (Thiazolyl blue tetrazolium bromide, Sigma). A stock solution of MTT, at a concentration of 4 mg/mL in phosphate-buffered saline, was added to all wells at 25 μL per well. Plates were further incubated for 4 hours, and each well was then treated with 50 μL of a solution containing 20% sodium dodecyl sulfate (SDS) and 0.02 N HCl. After an overnight incubation, the plates were measured on a BioTek® microtiter plate reader at wavelengths of 570 nm and 650 nm. The MTT detection is based on the fact that viable (uninfected) cells can reduce the tetrazolium salts into colored formazan products, which can then be quantitated by spectrometry. […] Compounds were tested to determine both their antiviral and toxicity to determine their therapeutic window. Determination of the EC50 and TD50 of these active compounds were repeated one additional time to confirm the window.

| SMILES | EC50 |
| --- | --- |
| Cc1nc(NCc2ccccn2)nc(NC2CCC(C)(O)CC2)c1C (stereo not drawn) [Example 38, trans-4-({5,6-dimethyl-2-[(pyridin-2-ylmethyl)amino]pyrimidin-4-yl}amino)-1-methylcyclohexanol] | 2400 nM |

Same assay, conditions: human respiratory syncytial virus, HEp-2, 96 h, Table 1, 0.2 MOI RSV, 4 days incubation, protection from CPE

| SMILES | EC50 |
| --- | --- |
| Cc1nc(NCc2ccccn2)nc(NC2CCNCC2)c1C [Example 83, 5,6-dimethyl-N^4-(piperidin-4-yl)-N^2-(pyridin-2-ylmethyl)pyrimidine-2,4-diamine] | 33000 nM |
| Cc1nc(NCc2ccccn2)nc(NC2CCC2)c1C [Example 47, N^4-cyclobutyl-5,6-dimethyl-N^2-(pyridin-2-ylmethyl)pyrimidine-2,4-diamine] | > 5300 nM |
| Cc1nc(NCc2ccccn2)nc(NC2CCC(C(F)(F)F)CC2)c1C (centres unmarked) [Example 31, 5,6-dimethyl-N^2-(pyridin-2-ylmethyl)-N^4-[4-(trifluoromethyl)cyclohexyl]pyrimidine-2,4-diamine] | > 9600 nM |
| Cc1nc(NCc2ccccn2)nc(NCC2CCCO2)c1C (centres unmarked) [Example 91, 5,6-dimethyl-N^2-(pyridin-2-ylmethyl)-N^4-(tetrahydrofuran-2-ylmethyl)pyrimidine-2,4-diamine] | 2200 nM |
| Cc1nc(NCc2ccccn2)nc(NC2CCN(C(=O)OC(C)(C)C)CC2)c1C [Example 82, tert-butyl 4-({5,6-dimethyl-2-[(pyridin-2-ylmethyl)amino]pyrimidin-4-yl}amino)piperidine-1-carboxylate] | 540 nM |
| Cc1nc(NCc2ccccn2)nc(NC2CCCC(O)C2)c1C (centres unmarked) [Example 85, 3-({5,6-dimethyl-2-[(pyridin-2-ylmethyl)amino]pyrimidin-4-yl}amino)cyclohexanol] | 1380 nM |
| Cc1nc(NCc2ccccn2)nc(NCC2CCCC2)c1C [Example 44, N^4-(cyclopentylmethyl)-5,6-dimethyl-N^2-(pyridin-2-ylmethyl)pyrimidine-2,4-diamine] | 24000 nM |
| Cc1nc(NCc2ccccn2)nc(NCC2CCCCC2)c1C [Example 92, N^4-(cyclohexylmethyl)-5,6-dimethyl-N^2-(pyridin-2-ylmethyl)pyrimidine-2,4-diamine] | 1100 nM |
| Cc1cccc(CNc2nc(C)c(C)c(NC3CCCCC3)n2)n1 [Example 19, N^4-cyclohexyl-5,6-dimethyl-N^2-[(6-methylpyridin-2-yl)methyl]pyrimidine-2,4-diamine] | 590 nM |
| Cc1ccc(O)c(CNc2nc(C)c(C)c(NC3CCCCC3)n2)n1 [Example 7, 2-({[4-(cyclohexylamino)-5,6-dimethylpyrimidin-2-yl]amino}methyl)-6-methylpyridin-3-ol] | > 12000 nM |
| Cc1nc(NCc2cc(Cl)ccn2)nc(NC2CCCCC2)c1C [Example 27, N^2-[(4-chloropyridin-2-yl)methyl]-N^4-cyclohexyl-5,6-dimethylpyrimidine-2,4-diamine] | 42 nM |
| Cc1nc(NCc2ccccn2)nc(NC2CCCCCC2)c1C [Example 45, N^4-cycloheptyl-5,6-dimethyl-N^2-(pyridin-2-ylmethyl)pyrimidine-2,4-diamine] | 18 nM |
| Cc1nc(N[C@H](C)c2ccccc2)nc(NC2CCCCC2)c1C [Example 15, N^4-cyclohexyl-5,6-dimethyl-N^2-[(1R)-1-phenylethyl]pyrimidine-2,4-diamine] | > 1900 nM |
| Cc1nc(NCc2ccccn2)nc(NC2CCCCC2C)c1C (centres unmarked) [Example 40, 5,6-dimethyl-N^4-(2-methylcyclohexyl)-N^2-(pyridin-2-ylmethyl)pyrimidine-2,4-diamine] | 65 nM |
| Cc1cccnc1CNc1nc(C)c(C)c(NC2CCCCC2)n1 [Example 26, N^4-cyclohexyl-5,6-dimethyl-N^2-[(3-methylpyridin-2-yl)methyl]pyrimidine-2,4-diamine] | > 5800 nM |
| Cc1nc(NCc2ccccn2)nc(NC2CCOCC2)c1C [Example 30, 5,6-dimethyl-N^2-(pyridin-2-ylmethyl)-N^4-(tetrahydro-2H-pyran-4-yl)pyrimidine-2,4-diamine] | 1100 nM |
| Cc1nc(NCc2ccccn2)nc(NC2CCN(C)CC2)c1C [Example 81, 5,6-dimethyl-N^4-(1-methylpiperidin-4-yl)-N^2-(pyridin-2-ylmethyl)pyrimidine-2,4-diamine] | 1300 nM |
| Cc1nc(NCc2ccn[nH]2)nc(NC2CCCCC2)c1C [Example 14, N^4-cyclohexyl-5,6-dimethyl-N^2-(1H-pyrazol-5-ylmethyl)pyrimidine-2,4-diamine] | 840 nM |
| Cc1nc(NCc2ccccn2)nc(NC2CCCCC2O)c1C (centres unmarked) [Example 42, 2-({5,6-dimethyl-2-[(pyridin-2-ylmethyl)amino]pyrimidin-4-yl}amino)cyclohexanol] | 300 nM |
| Cc1nc(NCc2cccc(F)c2)nc(NC2CCCCC2)c1C [Example 13, N^4-cyclohexyl-N^2-(3-fluorobenzyl)-5,6-dimethylpyrimidine-2,4-diamine] | > 1000 nM |
| Cc1ccnc(CNc2nc(C)c(C)c(NC3CCCCC3)n2)c1 [Example 17, N^4-cyclohexyl-5,6-dimethyl-N^2-[(4-methylpyridin-2-yl)methyl]pyrimidine-2,4-diamine] | 34 nM |
| Cc1nc(N[C@@H](C)c2ccccc2)nc(NC2CCCCC2)c1C [Example 16, N^4-cyclohexyl-5,6-dimethyl-N^2-[(1S)-1-phenylethyl]pyrimidine-2,4-diamine] | > 3700 nM |
| Cc1nc(NCc2ccc(C(C)C)cc2)nc(NC2CCCCC2)c1C [Example 11, N^4-cyclohexyl-N^2-(4-isopropylbenzyl)-5,6-dimethylpyrimidine-2,4-diamine] | > 2000 nM |
| Cc1nc(NCc2ccc(C(F)(F)F)cc2)nc(NC2CCCCC2)c1C [Example 12, N^4-cyclohexyl-5,6-dimethyl-N^2-[4-(trifluoromethyl)benzyl]pyrimidine-2,4-diamine] | > 950 nM |
| Cc1nc(NCc2ccccn2)nc(N[C@H]2CC[C@H](O)CC2)c1C [Example 79, trans-4-({5,6-dimethyl-2-[(pyridin-2-ylmethyl)amino]pyrimidin-4-yl}amino)cyclohexanol] | 620 nM |

The next lines start with the values.

| EC50 | SMILES |
| --- | --- |
| 650 nM | Cc1nc(NCc2ccccn2)nc(Nc2ccnn2C)c1C [Example 74, 5,6-dimethyl-N^4-(1-methyl-1H-pyrazol-5-yl)-N^2-(pyridin-2-ylmethyl)pyrimidine-2,4-diamine] |
| 9 nM | Cc1cccc(C)c1Nc1nc(NCc2ccccn2)nc(C)c1C [Example 68, N^4-(2,6-dimethylphenyl)-5,6-dimethyl-N^2-(pyridin-2-ylmethyl)pyrimidine-2,4-diamine] |
| 52 nM | Cc1ccc(Nc2nc(NCc3ccccn3)nc(C)c2C)cc1 [Example 63, 5,6-dimethyl-N^4-(4-methylphenyl)-N^2-(pyridin-2-ylmethyl)pyrimidine-2,4-diamine] |
| 34 nM | Cc1nc(NCc2ccccn2)nc(Nc2ccccc2Cl)c1C [Example 66, N^4-(2-chlorophenyl)-5,6-dimethyl-N^2-(pyridin-2-ylmethyl)pyrimidine-2,4-diamine] |
| 63 nM | Cc1nc(NCc2ccccn2)nc(Nc2ccc(F)c(F)c2)c1C [Example 58, N^4-(3,4-difluorophenyl)-5,6-dimethyl-N^2-(pyridin-2-ylmethyl)pyrimidine-2,4-diamine] |
| 320 nM | Cc1nc(NCc2ccccn2)nc(Nc2ccccc2F)c1C [Example 51, N^4-(2-fluorophenyl)-5,6-dimethyl-N^2-(pyridin-2-ylmethyl)pyrimidine-2,4-diamine] |
| 480 nM | CCc1c(C)nc(NCc2ccccn2)nc1Nc1ccc(F)cc1 [Example 89, 5-ethyl-N^4-(4-fluorophenyl)-6-methyl-N^2-(pyridin-2-ylmethyl)pyrimidine-2,4-diamine] |
| 25 nM | Cc1nc(NCc2ccccn2)nc(Nc2cccc(F)c2C)c1C [Example 76, N^4-(3-fluoro-2-methylphenyl)-5,6-dimethyl-N^2-(pyridin-2-ylmethyl)pyrimidine-2,4-diamine] |
| 320 nM | Cc1nc(NCc2ccccn2)nc(NC2Cc3ccccc3C2)c1C [Example 46, N^4-(2,3-dihydro-1H-inden-2-yl)-5,6-dimethyl-N^2-(pyridin-2-ylmethyl)pyrimidine-2,4-diamine] |
| 40 nM | Cc1nc(NCc2ccccn2)nc(Nc2ccc3c(c2)OCO3)c1C [Example 61, N^4-(1,3-benzodioxol-5-yl)-5,6-dimethyl-N^2-(pyridin-2-ylmethyl)pyrimidine-2,4-diamine] |
| 310 nM | Cc1nc(NCc2ccccn2)nc(Nc2cccc(F)c2)c1C [Example 49, N^4-(3-fluorophenyl)-5,6-dimethyl-N^2-(pyridin-2-ylmethyl)pyrimidine-2,4-diamine] |
| 40 nM | Cc1nc(NCc2ccccn2)nc(Nc2cc(F)cc(F)c2)c1C [Example 64, N^4-(3,5-difluorophenyl)-5,6-dimethyl-N^2-(pyridin-2-ylmethyl)pyrimidine-2,4-diamine] |
